Assay results as given in ChEMBL document CHEMBL1201862, “PubChem BioAssay data set” (2004).
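The compound was tested at five concentrations on cells cultured in 96-well plates, with a 48-hour exposure period. Abbreviation: GI50, concentration required for 50% inhibition of growth.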 Calls of active or inactive are those of the source. Cut-off read from the data, not from the text of the source: active = GI50 up to about 1.1 µM and inactive = higher.

Key:
Assay in all cases: DTP human tumour cell line panel, 48 h
NCI-H23 = system: NCI-H23
SK-MEL-5 = system: SK-MEL-5
OVCAR-3 = system: OVCAR-3
RPMI-8226 = system: RPMI-8226
A549 = system: A549
SR = system: SR
HCT-15 = system: HCT-15
NCI-H522 = system: NCI-H522
KM12 = system: KM12
786-0 = system: 786-0
DU-145 = system: DU-145
NCI-H226 = system: NCI-H226
HOP-62 = system: HOP-62
SK-MEL-2 = system: SK-MEL-2
MDA-MB-435 = system: MDA-MB-435
HCT-116 = system: HCT-116
UACC-62 = system: UACC-62
HT-29 = system: HT-29
OVCAR-8 = system: OVCAR-8
Hs-578T = system: Hs-578T
HOP-92 = system: HOP-92
CAKI-1 = system: CAKI-1
NCI/ADR-RES = system: NCI/ADR-RES
CCRF-CEM = system: CCRF-CEM
ACHN = system: ACHN
SN12C = system: SN12C
A498 = system: A498
RXF 393 = system: RXF 393
OVCAR-5 = system: OVCAR-5
SF-268 = system: SF-268
SK-OV-3 = system: SK-OV-3
MCF7 = system: MCF7
COLO 205 = system: COLO 205
K562 = system: K562
M14 = system: M14
SF-295 = system: SF-295
SNB-19 = system: SNB-19
MOLT-4 = system: MOLT-4
SF-539 = system: SF-539
SNB-75 = system: SNB-75
UO-31 = system: UO-31
HL-60 = system: HL-60
BT-549 = system: BT-549
UACC-257 = system: UACC-257
LOX IMVI = system: LOX IMVI
MDA-N = system: MDA-N
T47D = system: T47D
Malme-3M = system: Malme-3M
MDA-MB-231 = system: MDA-MB-231
IGROV-1 = system: IGROV-1
EKVX = system: EKVX
SW-620 = system: SW-620
TK-10 = system: TK-10
PC-3 = system: PC-3
OVCAR-4 = system: OVCAR-4
HCC 2998 = system: HCC 2998
NCI-H460 = system: NCI-H460
U-251 = system: U-251
SK-MEL-28 = system: SK-MEL-28

NC(=O)Cc1ncn(-c2ccccc2)n1
GI50 (NCI-H23): > 100 µM (inactive) | GI50 (SK-MEL-5): > 100 µM (inactive) | GI50 (OVCAR-3): > 100 µM (inactive) | GI50 (RPMI-8226): > 100 µM (inactive) | GI50 (A549): > 100 µM (inactive) | GI50 (SR): > 100 µM (inactive) | GI50 (HCT-15): > 100 µM | GI50 (NCI-H522): > 100 µM (inactive) | GI50 (KM12): > 100 µM (inactive) | GI50 (786-0): > 100 µM (inactive) | GI50 (DU-145): > 100 µM (inactive) | GI50 (NCI-H226): > 100 µM (inactive) | GI50 (HOP-62): > 100 µM (inactive) | GI50 (SK-MEL-2): > 100 µM (inactive) | GI50 (MDA-MB-435): > 100 µM (inactive) | GI50 (HCT-116): > 100 µM (inactive) | GI50 (UACC-62): > 100 µM (inactive) | GI50 (HT-29): > 100 µM (inactive) | GI50 (OVCAR-8): > 100 µM (inactive) | GI50 (Hs-578T): > 100 µM (inactive) | GI50 (HOP-92): > 100 µM (inactive) | GI50 (CAKI-1): > 100 µM (inactive) | GI50 (NCI/ADR-RES): > 100 µM (inactive) | GI50 (CCRF-CEM): > 100 µM (inactive) | GI50 (ACHN): > 100 µM (inactive) | GI50 (SN12C): > 100 µM (inactive) | GI50 (A498): > 100 µM (inactive) | GI50 (RXF 393): > 100 µM (inactive) | GI50 (OVCAR-5): > 100 µM (inactive) | GI50 (SF-268): > 100 µM (inactive) | GI50 (SK-OV-3): > 100 µM (inactive) | GI50 (MCF7): > 100 µM (inactive) | GI50 (COLO 205): > 100 µM (inactive) | GI50 (K562): > 100 µM (inactive) | GI50 (M14): > 100 µM (inactive) | GI50 (SF-295): > 100 µM (inactive) | GI50 (SNB-19): > 100 µM (inactive) | GI50 (MOLT-4): > 100 µM (inactive) | GI50 (SF-539): > 100 µM (inactive) | GI50 (SNB-75): > 100 µM (inactive) | GI50 (UO-31): > 100 µM (inactive) | GI50 (HL-60): > 100 µM (inactive) | GI50 (BT-549): > 100 µM (inactive) | GI50 (UACC-257): > 100 µM (inactive) | GI50 (LOX IMVI): > 100 µM (inactive) | GI50 (MDA-N): > 100 µM (inactive) | GI50 (T47D): > 100 µM (inactive) | GI50 (Malme-3M): > 100 µM (inactive) | GI50 (MDA-MB-231): > 100 µM (inactive) | GI50 (IGROV-1): > 100 µM (inactive) | GI50 (EKVX): > 100 µM (inactive) | GI50 (SW-620): > 100 µM (inactive) | GI50 (TK-10): > 100 µM (inactive)

CCc1c(CN)c(CC)c(CNC2=NCCN2)c(CC)c1CNC1=NCCN1
GI50 (NCI-H23): > 100 µM (inactive) | GI50 (SK-MEL-5): > 100 µM (inactive) | GI50 (OVCAR-3): > 100 µM (inactive) | GI50 (PC-3): > 100 µM (inactive) | GI50 (RPMI-8226): > 100 µM (inactive) | GI50 (A549): > 100 µM (inactive) | GI50 (SR): > 100 µM (inactive) | GI50 (HCT-15): > 100 µM | GI50 (NCI-H522): > 100 µM (inactive) | GI50 (KM12): > 100 µM (inactive) | GI50 (786-0): > 100 µM (inactive) | GI50 (DU-145): > 100 µM (inactive) | GI50 (NCI-H226): > 100 µM (inactive) | GI50 (OVCAR-4): > 100 µM (inactive) | GI50 (HOP-62): > 100 µM (inactive) | GI50 (SK-MEL-2): > 100 µM (inactive) | GI50 (MDA-MB-435): > 100 µM (inactive) | GI50 (HCT-116): > 100 µM (inactive) | GI50 (UACC-62): > 100 µM (inactive) | GI50 (HT-29): > 100 µM (inactive) | GI50 (OVCAR-8): > 100 µM (inactive) | GI50 (Hs-578T): > 100 µM (inactive) | GI50 (HOP-92): > 100 µM (inactive) | GI50 (CAKI-1): > 100 µM (inactive) | GI50 (NCI/ADR-RES): > 100 µM (inactive) | GI50 (CCRF-CEM): > 100 µM (inactive) | GI50 (ACHN): > 100 µM (inactive) | GI50 (SN12C): > 100 µM (inactive) | GI50 (A498): > 100 µM (inactive) | GI50 (RXF 393): > 100 µM (inactive) | GI50 (OVCAR-5): > 100 µM (inactive) | GI50 (SF-268): > 100 µM (inactive) | GI50 (HCC 2998): > 100 µM (inactive) | GI50 (NCI-H460): > 100 µM (inactive) | GI50 (SK-OV-3): > 100 µM (inactive) | GI50 (MCF7): > 100 µM (inactive) | GI50 (COLO 205): > 100 µM (inactive) | GI50 (K562): > 100 µM (inactive) | GI50 (M14): > 100 µM (inactive) | GI50 (SF-295): > 100 µM (inactive) | GI50 (SNB-19): > 100 µM (inactive) | GI50 (U-251): > 100 µM (inactive) | GI50 (MOLT-4): > 100 µM (inactive) | GI50 (SF-539): > 100 µM (inactive) | GI50 (SNB-75): > 100 µM (inactive) | GI50 (UO-31): > 100 µM (inactive) | GI50 (BT-549): > 100 µM (inactive) | GI50 (UACC-257): > 100 µM (inactive) | GI50 (MDA-N): > 100 µM (inactive) | GI50 (T47D): > 100 µM (inactive) | GI50 (Malme-3M): > 100 µM (inactive) | GI50 (IGROV-1): > 100 µM (inactive) | GI50 (SK-MEL-28): > 100 µM (inactive) | GI50 (EKVX): > 100 µM (inactive) | GI50 (SW-620): > 100 µM (inactive) | GI50 (TK-10): > 100 µM (inactive)
